# Assay results from PMC10327353 (Breast Cancer Research : BCR, 2023).
# Experiment: Phase 1 study: safety and tolerability
# Assay type: in vivo
# Procedure: The maximum tolerated dose (MTD) of DZD1516 was defined based on safety data and the Bayesian optimal interval (BOIN) design (Additional file 1). The definition of DLT is provided in Additional file 1.
# The AE grading was assessed according to the NCI-Common Terminology Criteria for Adverse Events (CTCAE) (version 5.0) and was monitored until 28 days after the last dose.
# Eligible patients received single oral dosing of DZD1516 on Cycle 0 Day 1 (C0D1), followed by a 7-day washout. Twice daily oral dosing (bid) of DZD1516 was commenced from C1D1 in a continuous 21-day cycle until disease progression, unacceptable toxicity, or withdrawal of consent. All doses were taken under fed conditions (within 30 minutes after a meal).
# Planned dosing consisted of 25, 50, 100, 200, 300, and 400 mg. Each dose escalation cohort will comprise a minimum of three and a maximum of six evaluable patients (except only one patient in the starting dose cohort). The maximum tolerated dose of DZD1516 was defined according to safety data and the Bayesian optimal interval (BOIN) design. Dose escalation/de-escalation rule with target toxicity rate for the MTD is 0.30 with interval of (0.20, 0.33).
# DLTs were any adverse event (AE) not clearly attributable to the patient’s disease, including ≥ grade 4 hematological toxicities present for ≥ 4 days, grade 3 thrombocytopenia with bleeding, or grade 4 thrombocytopenia lasting for > 5 days, ≥ grade 3 non-hematological toxicities that is dose-limiting in the judgment of the investigators. Any other toxicity that is greater than that at baseline, is clinically significant or unacceptable, and is judged to be a DLT by the SRC. Exceptions included alopecia of any grade and isolated grade 3 laboratory change without clinical sequelae or clinical significance.
# Safety evaluations were conducted at screening, on Day 1, 8, and 15 of Cycle 1, on Day 1 of each subsequent treatment cycle, at the end-of-treatment visit, and clinically indicated. Safety assessments included clinical laboratory measurements (hematology, chemistry, coagulation, and urinalysis), electrocardiogram (ECG), Echocardiogram/MUGA scan, ECOG performance status, vital signs, and physical examinations.
compound,measurement,setting,value
COc1cc(O[C@H]2CCN(C)CC2(F)F)c2c(Nc3ccc(Oc4ccn5ncnc5c4)c(C)c3)ncnc2c1 [DZD1516],"Nervous system disorders, Any Grade",50 mg (N = 4),1 (25.0) n (%)
same,"Nervous system disorders, ≥ Grade 3",50 mg (N = 4),0 (0.0) n (%)
same,"Participants with any TEAE, Any Grade",50 mg (N = 4),3 (75.0) n (%)
same,"Participants with any TEAE, ≥ Grade 3",50 mg (N = 4),0 (0.0) n (%)
same,"Platelet count decreased, Any Grade",50 mg (N = 4),1 (25.0) n (%)
same,"Platelet count decreased, ≥ Grade 3",50 mg (N = 4),0 (0.0) n (%)
same,"Proteinuria, Any Grade",50 mg (N = 4),1 (25.0) n (%)
same,"Proteinuria, ≥ Grade 3",50 mg (N = 4),0 (0.0) n (%)
same,"Renal and urinary disorders, Any Grade",50 mg (N = 4),1 (25.0) n (%)
same,"Renal and urinary disorders, ≥ Grade 3",50 mg (N = 4),0 (0.0) n (%)
same,Subjects with any TEAE,50 mg (N = 4),3 (75.0) n (%)
same,Subjects with any drug-related TEAE,50 mg (N = 4),3 (75.0) n (%)
same,"Vomiting, Any Grade",50 mg (N = 4),0 (0.0) n (%)
same,"Vomiting, ≥ Grade 3",50 mg (N = 4),0 (0.0) n (%)
same,"White blood cell count decreased, Any Grade",50 mg (N = 4),1 (25.0) n (%)
same,"White blood cell count decreased, ≥ Grade 3",50 mg (N = 4),0 (0.0) n (%)
same,"Alanine aminotransferase increased, Any Grade",100 mg (N = 4),0 (0.0) n (%)
same,"Alanine aminotransferase increased, ≥ Grade 3",100 mg (N = 4),0 (0.0) n (%)
same,"Anemia, Any Grade",100 mg (N = 4),1 (25.0) n (%)
same,"Anemia, ≥ Grade 3",100 mg (N = 4),0 (0.0) n (%)
same,Any TEAE: Grade 3,100 mg (N = 4),1 (25.0) n (%)
same,Any TEAE: Leading to death,100 mg (N = 4),0 (0.0) n (%)
same,Any TEAE: Leading to dose reduction,100 mg (N = 4),0 (0.0) n (%)
same,Any TEAE: Leading to treatment discontinuation,100 mg (N = 4),0 (0.0) n (%)
same,Any TEAE: Leading to treatment interruption,100 mg (N = 4),1 (25.0) n (%)
same,Any TEAE: SAE,100 mg (N = 4),1 (25.0) n (%)
same,"Aspartate aminotransferase increased, Any Grade",100 mg (N = 4),0 (0.0) n (%)
same,"Aspartate aminotransferase increased, ≥ Grade 3",100 mg (N = 4),0 (0.0) n (%)
same,"Blood and lymphatic system disorders, Any Grade",100 mg (N = 4),1 (25.0) n (%)
same,"Blood and lymphatic system disorders, ≥ Grade 3",100 mg (N = 4),0 (0.0) n (%)
same,"Blood bilirubin increased, Any Grade",100 mg (N = 4),0 (0.0) n (%)
same,"Blood bilirubin increased, ≥ Grade 3",100 mg (N = 4),0 (0.0) n (%)
same,"Cardiac disorders, Any Grade",100 mg (N = 4),0 (0.0) n (%)
same,"Cardiac disorders, ≥ Grade 3",100 mg (N = 4),0 (0.0) n (%)
same,"Constipation, Any Grade",100 mg (N = 4),1 (25.0) n (%)
same,"Constipation, ≥ Grade 3",100 mg (N = 4),0 (0.0) n (%)
same,"Decreased appetite, Any Grade",100 mg (N = 4),1 (25.0) n (%)
same,"Decreased appetite, ≥ Grade 3",100 mg (N = 4),0 (0.0) n (%)
same,"Dizziness, Any Grade",100 mg (N = 4),1 (25.0) n (%)
same,"Dizziness, ≥ Grade 3",100 mg (N = 4),0 (0.0) n (%)
same,Drug-related TEAE: Grade 3,100 mg (N = 4),1 (25.0) n (%)
same,Drug-related TEAE: Leading to death,100 mg (N = 4),0 (0.0) n (%)
same,Drug-related TEAE: Leading to dose reduction,100 mg (N = 4),0 (0.0) n (%)
same,Drug-related TEAE: Leading to treatment discontinuation,100 mg (N = 4),0 (0.0) n (%)
same,Drug-related TEAE: Leading to treatment interruption,100 mg (N = 4),1 (25.0) n (%)
same,Drug-related TEAE: SAE,100 mg (N = 4),1 (25.0) n (%)
same,"Fatigue, Any Grade",100 mg (N = 4),1 (25.0) n (%)
same,"Fatigue, ≥ Grade 3",100 mg (N = 4),0 (0.0) n (%)
same,"Gastrointestinal disorders, Any Grade",100 mg (N = 4),2 (50.0) n (%)
same,"Gastrointestinal disorders, ≥ Grade 3",100 mg (N = 4),1 (25.0) n (%)
same,"General disorders and administration site conditions, Any Grade",100 mg (N = 4),1 (25.0) n (%)
same,"General disorders and administration site conditions, ≥ Grade 3",100 mg (N = 4),0 (0.0) n (%)
same,"Headache, Any Grade",100 mg (N = 4),2 (50.0) n (%)
same,"Headache, ≥ Grade 3",100 mg (N = 4),0 (0.0) n (%)
same,"Hemoglobin decreased, Any Grade",100 mg (N = 4),0 (0.0) n (%)
same,"Hemoglobin decreased, ≥ Grade 3",100 mg (N = 4),0 (0.0) n (%)
same,"Investigations, Any Grade",100 mg (N = 4),3 (75.0) n (%)
same,"Investigations, ≥ Grade 3",100 mg (N = 4),1 (25.0) n (%)
same,"Lipase increased, Any Grade",100 mg (N = 4),0 (0.0) n (%)
same,"Lipase increased, ≥ Grade 3",100 mg (N = 4),0 (0.0) n (%)
same,"Malaise, Any Grade",100 mg (N = 4),0 (0.0) n (%)
same,"Malaise, ≥ Grade 3",100 mg (N = 4),0 (0.0) n (%)
same,"Metabolism and nutrition disorders, Any Grade",100 mg (N = 4),3 (75.0) n (%)
same,"Metabolism and nutrition disorders, ≥ Grade 3",100 mg (N = 4),0 (0.0) n (%)
same,"Musculoskeletal and connective tissue disorders, Any Grade",100 mg (N = 4),0 (0.0) n (%)
same,"Musculoskeletal and connective tissue disorders, ≥ Grade 3",100 mg (N = 4),0 (0.0) n (%)
same,"Nausea, Any Grade",100 mg (N = 4),0 (0.0) n (%)
same,"Nausea, ≥ Grade 3",100 mg (N = 4),0 (0.0) n (%)
same,"Nervous system disorders, Any Grade",100 mg (N = 4),3 (75.0) n (%)
same,"Nervous system disorders, ≥ Grade 3",100 mg (N = 4),0 (0.0) n (%)
same,"Participants with any TEAE, Any Grade",100 mg (N = 4),4 (100.0) n (%)
same,"Participants with any TEAE, ≥ Grade 3",100 mg (N = 4),1 (25.0) n (%)
same,"Platelet count decreased, Any Grade",100 mg (N = 4),1 (25.0) n (%)
same,"Platelet count decreased, ≥ Grade 3",100 mg (N = 4),0 (0.0) n (%)
same,"Proteinuria, Any Grade",100 mg (N = 4),0 (0.0) n (%)
same,"Proteinuria, ≥ Grade 3",100 mg (N = 4),0 (0.0) n (%)
same,"Renal and urinary disorders, Any Grade",100 mg (N = 4),1 (25.0) n (%)
same,"Renal and urinary disorders, ≥ Grade 3",100 mg (N = 4),0 (0.0) n (%)
same,Subjects with any TEAE,100 mg (N = 4),4 (100.0) n (%)
same,Subjects with any drug-related TEAE,100 mg (N = 4),4 (100.0) n (%)
same,"Vomiting, Any Grade",100 mg (N = 4),2 (50.0) n (%)
same,"Vomiting, ≥ Grade 3",100 mg (N = 4),1 (25.0) n (%)
same,"White blood cell count decreased, Any Grade",100 mg (N = 4),0 (0.0) n (%)
same,"White blood cell count decreased, ≥ Grade 3",100 mg (N = 4),0 (0.0) n (%)
same,"Alanine aminotransferase increased, Any Grade",200 mg (N = 5),0 (0.0) n (%)
same,"Alanine aminotransferase increased, ≥ Grade 3",200 mg (N = 5),0 (0.0) n (%)
same,"Anemia, Any Grade",200 mg (N = 5),1 (20.0) n (%)
same,"Anemia, ≥ Grade 3",200 mg (N = 5),0 (0.0) n (%)
same,Any TEAE: Grade 3,200 mg (N = 5),1 (20.0) n (%)
same,Any TEAE: Leading to death,200 mg (N = 5),0 (0.0) n (%)
same,Any TEAE: Leading to dose reduction,200 mg (N = 5),0 (0.0) n (%)
same,Any TEAE: Leading to treatment discontinuation,200 mg (N = 5),0 (0.0) n (%)
same,Any TEAE: Leading to treatment interruption,200 mg (N = 5),0 (0.0) n (%)
same,Any TEAE: SAE,200 mg (N = 5),0 (0.0) n (%)
same,"Aspartate aminotransferase increased, Any Grade",200 mg (N = 5),1 (20.0) n (%)
same,"Aspartate aminotransferase increased, ≥ Grade 3",200 mg (N = 5),0 (0.0) n (%)
same,"Blood and lymphatic system disorders, Any Grade",200 mg (N = 5),1 (20.0) n (%)
same,"Blood and lymphatic system disorders, ≥ Grade 3",200 mg (N = 5),0 (0.0) n (%)
same,"Blood bilirubin increased, Any Grade",200 mg (N = 5),2 (40.0) n (%)
same,"Blood bilirubin increased, ≥ Grade 3",200 mg (N = 5),0 (0.0) n (%)
same,"Cardiac disorders, Any Grade",200 mg (N = 5),1 (20.0) n (%)
same,"Cardiac disorders, ≥ Grade 3",200 mg (N = 5),0 (0.0) n (%)
same,"Constipation, Any Grade",200 mg (N = 5),1 (20.0) n (%)
same,"Constipation, ≥ Grade 3",200 mg (N = 5),0 (0.0) n (%)
same,"Decreased appetite, Any Grade",200 mg (N = 5),0 (0.0) n (%)
same,"Decreased appetite, ≥ Grade 3",200 mg (N = 5),0 (0.0) n (%)
same,"Dizziness, Any Grade",200 mg (N = 5),0 (0.0) n (%)
same,"Dizziness, ≥ Grade 3",200 mg (N = 5),0 (0.0) n (%)
same,Drug-related TEAE: Grade 3,200 mg (N = 5),1 (20.0) n (%)
same,Drug-related TEAE: Leading to death,200 mg (N = 5),0 (0.0) n (%)
same,Drug-related TEAE: Leading to dose reduction,200 mg (N = 5),0 (0.0) n (%)
same,Drug-related TEAE: Leading to treatment discontinuation,200 mg (N = 5),0 (0.0) n (%)
same,Drug-related TEAE: Leading to treatment interruption,200 mg (N = 5),0 (0.0) n (%)
same,Drug-related TEAE: SAE,200 mg (N = 5),0 (0.0) n (%)
same,"Fatigue, Any Grade",200 mg (N = 5),1 (20.0) n (%)
same,"Fatigue, ≥ Grade 3",200 mg (N = 5),0 (0.0) n (%)
same,"Gastrointestinal disorders, Any Grade",200 mg (N = 5),3 (60.0) n (%)
same,"Gastrointestinal disorders, ≥ Grade 3",200 mg (N = 5),0 (0.0) n (%)
same,"General disorders and administration site conditions, Any Grade",200 mg (N = 5),2 (40.0) n (%)
same,"General disorders and administration site conditions, ≥ Grade 3",200 mg (N = 5),0 (0.0) n (%)
same,"Headache, Any Grade",200 mg (N = 5),1 (20.0) n (%)
